Measured values taken from US20230241121A1, “COMPOSITIONS AND METHODS RELATING TO EXOSOMES DERIVED FROM HUMAN DERMAL PAPILLA CELLS” (NORTH CAROLINA STATE UNIVERSITY, priority 2020, published 2023).

What was measured:
β-catenin = test: Immunostaining of β-catenin in dorsal skin hair follicles ten days after treatment; format: in vivo, C57BL/6 mice; details: treated side, day 10
Excerpt: (§1) Animals and in vivo studies. Seven-week-old male C57BL/6 mice were purchased from Jackson laboratory and allowed to adapt to their new environment for 1 week. Hair was removed by using depilatory cream to observe the pink skin. Then, animals were randomly divided into groups (n=5) randomly to investigate hair regrowth. Minoxidil was topically applied daily as a positive control. Other treatments were given subcutaneously. All work with mice was in accordance with IACUC. Cell treatment dose: 1.0×10^6 cells in 200 μL PBS were subcutaneously injected into 10 spots (20 μL per site) on the left side of the dorsal skin. Exosome treatment dose: 2.0×10^9 exosomes in 200 μL PBS were subcutaneously injected to 10 spots (20 μL per site) on the left side of the backs. Negative control, miR-218-5p mimics and inhibitors (Sigma-Aldrich): administered according to the protocol provided by in vivo-jetPEI™ (Polyplus transfection). In brief, mice received ten injections per depilated dorsal skin. 400 ng miRNA mimic or inhibitor was dissolved in 90 μl 5% glucose (w/v) solution, and then 10 μl in vivo-jet PEI solution was added. Vortex-mix the solution immediately and incubate for 15 minutes at room temperature before injection. Control groups were injected with mimic control.
(§2) Skin tissue histology. Mice were euthanized and the whole dorsal skin was removed. […]

depilated C57BL/6 mice = test: Dorsal hair regrowth in depilated mice; format: in vivo
Excerpt: Animals and in vivo studies. Seven-week-old male C57BL/6 mice were purchased from Jackson laboratory and allowed to adapt to their new environment for 1 week. Hair was removed by using depilatory cream to observe the pink skin. Then, animals were randomly divided into groups (n=5) randomly to investigate hair regrowth. Minoxidil was topically applied daily as a positive control. Other treatments were given subcutaneously. All work with mice was in accordance with IACUC. Cell treatment dose: 1.0×10^6 cells in 200 μL PBS were subcutaneously injected into 10 spots (20 μL per site) on the left side of the dorsal skin. Exosome treatment dose: 2.0×10^9 exosomes in 200 μL PBS were subcutaneously injected to 10 spots (20 μL per site) on the left side of the backs. Negative control, miR-218-5p mimics and inhibitors (Sigma-Aldrich): administered according to the protocol provided by in vivo-jetPEI™ (Polyplus transfection). In brief, mice received ten injections per depilated dorsal skin. 400 ng miRNA mimic or inhibitor was dissolved in 90 μl 5% glucose (w/v) solution, and then 10 μl in vivo-jet PEI solution was added. Vortex-mix the solution immediately and incubate for 15 minutes at room temperature before injection. […]
The state of hair re-growth in depilated mice was photographed on days 0, 10, 15, and 20, and hair growth area was analyzed via morphological observation (FIGS. 3A-3D). […]

Ki67 = test: Immunostaining of Ki67 in dorsal skin hair follicles ten days after treatment; format: in vivo, C57BL/6 mice; details: day 10
Excerpt: as §1, §2

CD133 = test: Immunostaining of CD133 in dorsal skin hair follicles ten days after treatment; format: in vivo, C57BL/6 mice; details: treated side, day 10
Excerpt: as §1, §2

## Nc1cc(N2CCCCC2)nc(N)[n+]1[O-] [5% minoxidil, minoxidil]
β-catenin
  expression of β-catenin (β-catenin positive cells): 2.3%
Depilated C57BL/6 mice; day 15, treated side
  fur coverage: 35%
Depilated C57BL/6 mice; day 15, untreated side
  fur coverage: 10%
Ki67; non-treated side
  Ki67 signals: 7.1%
Ki67; treated side
  Ki67 signals: 37.2%
CD133
  expression of CD133 (CD133 positive cells): 7.2%
